Source: patent US9932341B2, “Use of pyrazolopyrimidine derivatives for the treatment of PI3K-delta related disorders” (Incyte Corporation, priority 2013, dated 2018)
pIC50: −log10 of the molar value. Counter-ions that a name gives are not always drawn.

What follows are compounds tested against PI3Kδ (p110δ/p85α) (Homo sapiens (Human), UniProt O00329) (assay: PI3Kδ Scintillation Proximity Assay (Example A3)). Details: 20 μM ATP, 20 μM PIP2, 4 nM PI3Kδ, read-out: PI3Kδ SPA IC50.
Type: biochemical
In short: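 SPA with 4 nM p110δ/p85α, 20 μM PIP2, 20 μM ATP plus [γ-^33P]ATP, in 20 mM MOPS pH 6.7, 10 mM MgCl2, 5 mM DTT, 0.03% CHAPS, 0.5% DMSO, room temperature. Stopped with EDTA/ATP, WGA SPA beads, overnight shaking, scintillation counting. IC50 from % control activity vs log concentration.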

Sequence of PI3Kδ (p110δ/p85α) (O00329 whole entry): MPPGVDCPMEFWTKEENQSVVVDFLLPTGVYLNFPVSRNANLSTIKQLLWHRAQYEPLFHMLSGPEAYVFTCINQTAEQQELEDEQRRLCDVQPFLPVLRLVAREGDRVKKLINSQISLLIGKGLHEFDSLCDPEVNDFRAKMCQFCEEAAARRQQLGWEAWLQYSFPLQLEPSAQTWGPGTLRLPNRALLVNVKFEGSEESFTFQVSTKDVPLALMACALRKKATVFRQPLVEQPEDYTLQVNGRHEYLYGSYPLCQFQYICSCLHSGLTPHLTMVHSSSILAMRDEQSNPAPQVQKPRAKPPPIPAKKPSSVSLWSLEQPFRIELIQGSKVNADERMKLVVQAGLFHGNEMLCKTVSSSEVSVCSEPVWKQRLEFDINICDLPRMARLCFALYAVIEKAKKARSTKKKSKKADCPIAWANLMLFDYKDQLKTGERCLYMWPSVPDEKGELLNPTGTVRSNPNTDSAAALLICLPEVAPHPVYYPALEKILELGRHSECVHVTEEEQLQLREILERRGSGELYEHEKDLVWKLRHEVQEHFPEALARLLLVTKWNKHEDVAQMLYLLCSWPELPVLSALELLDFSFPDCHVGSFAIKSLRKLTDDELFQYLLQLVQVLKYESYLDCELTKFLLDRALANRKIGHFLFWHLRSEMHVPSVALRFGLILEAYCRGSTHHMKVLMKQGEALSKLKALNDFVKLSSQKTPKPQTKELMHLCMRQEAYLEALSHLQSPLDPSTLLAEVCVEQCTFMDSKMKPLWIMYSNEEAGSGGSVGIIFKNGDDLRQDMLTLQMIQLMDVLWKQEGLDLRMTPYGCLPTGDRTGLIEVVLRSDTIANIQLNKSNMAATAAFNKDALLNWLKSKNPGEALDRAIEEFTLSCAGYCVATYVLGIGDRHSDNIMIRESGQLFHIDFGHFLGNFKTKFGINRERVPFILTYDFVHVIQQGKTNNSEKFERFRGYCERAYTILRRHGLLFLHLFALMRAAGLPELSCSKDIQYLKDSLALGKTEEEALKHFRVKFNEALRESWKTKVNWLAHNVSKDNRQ
Sequence of PI3Kδ (p110δ/p85α) (P27986 whole entry partner): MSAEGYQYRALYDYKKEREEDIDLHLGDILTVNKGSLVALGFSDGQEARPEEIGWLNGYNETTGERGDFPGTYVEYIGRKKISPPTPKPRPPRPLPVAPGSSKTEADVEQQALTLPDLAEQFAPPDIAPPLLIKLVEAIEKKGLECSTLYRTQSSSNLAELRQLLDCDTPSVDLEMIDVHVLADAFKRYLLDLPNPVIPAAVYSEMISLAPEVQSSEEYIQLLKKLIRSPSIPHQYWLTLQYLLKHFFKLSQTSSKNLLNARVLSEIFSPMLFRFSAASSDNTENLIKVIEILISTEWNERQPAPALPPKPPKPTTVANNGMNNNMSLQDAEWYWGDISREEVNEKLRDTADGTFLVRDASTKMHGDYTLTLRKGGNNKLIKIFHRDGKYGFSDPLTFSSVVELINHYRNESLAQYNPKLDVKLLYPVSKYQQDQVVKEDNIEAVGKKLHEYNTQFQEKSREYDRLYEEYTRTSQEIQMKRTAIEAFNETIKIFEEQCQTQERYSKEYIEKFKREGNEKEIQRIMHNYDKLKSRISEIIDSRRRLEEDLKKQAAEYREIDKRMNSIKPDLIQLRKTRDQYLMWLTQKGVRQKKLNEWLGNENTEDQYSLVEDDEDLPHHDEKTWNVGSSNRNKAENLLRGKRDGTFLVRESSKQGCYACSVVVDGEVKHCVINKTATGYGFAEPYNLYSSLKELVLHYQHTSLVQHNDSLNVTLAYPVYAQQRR

pIC50 | Compound
< 6.30 | CCOc1c(C(C)n2nc(C)c3c(N)ncnc32)cc(Cl)c(F)c1C1COC(=O)N1 (single isomer, unassigned) [Example 353, 4-{3-[1-(4-amino-3-methyl-1H-pyrazolo[3,4-d]pyrimidin-1-yl)ethyl]-5-chloro-2-ethoxy-6-fluorophenyl}-1,3-oxazolidin-2-one]
> 8.00 | CCOc1c(C(C)n2nc(C)c3c(N)ncnc32)cc(Cl)c(F)c1C1COC(=O)N1 (single isomer, unassigned) [Example 354, 4-{3-[1-(4-amino-3-methyl-1H-pyrazolo[3,4-d]pyrimidin-1-yl)ethyl]-5-chloro-2-ethoxy-6-fluorophenyl}-1,3-oxazolidin-2-one]
6.70 to 7.30 | CCOc1c(C(C)n2nc(C)c3c(N)ncnc32)cc(Cl)c(F)c1C1CNC(=O)O1 (single isomer, unassigned) [Example 355, 5-{3-[1-(4-amino-3-methyl-1H-pyrazolo[3,4-d]pyrimidin-1-yl)ethyl]-5-chloro-2-ethoxy-6-fluorophenyl}-1,3-oxazolidin-2-one]
6.70 to 7.30 | CCOc1c(C(C)n2nc(C)c3c(N)ncnc32)cc(Cl)c(F)c1C1CNC(=O)O1 (single isomer, unassigned) [Example 356, 5-{3-[1-(4-amino-3-methyl-1H-pyrazolo[3,4-d]pyrimidin-1-yl)ethyl]-5-chloro-2-ethoxy-6-fluorophenyl}-1,3-oxazolidin-2-one]
> 8.00 | COc1c(C(C)n2nc(C)c3c(N)ncnc32)cc(Cl)c(C)c1C1CN(CC(C)O)C1 (stereo in doubt) [Example 102, (2S)-1-(3-{3-[1-(4-Amino-3-methyl-1H-pyrazolo[3,4-d]pyrimidin-1-yl)ethyl]-5-chloro-2-methoxy-6-methylphenyl}azetidin-1-yl)propan-2-ol]
> 8.00 | COc1c(C(C)n2nc(C)c3c(N)ncnc32)cc(Cl)c(F)c1C1CN(C[C@H](C)O)C1 (stereo partly drawn) [68 (1st peak), (2S)-1-(3-{3-[1-(4-Amino-3-methyl-1H-pyrazolo[3,4-d]pyrimidin-1-yl)ethyl]-5-chloro-6-fluoro-2-methoxyphenyl}azetidin-1-yl)propan-2-ol]
> 8.00 | CCOc1c(C(C)n2nc(C)c3c(N)ncnc32)cc(Cl)c(F)c1C1CN(C(C)C)C1 (stereo not drawn) [139 (1st peak), 1-{1-[5-Chloro-2-ethoxy-4-fluoro-3-(1-isopropylazetidin-3-yl)phenyl]ethyl}-3-methyl-1H-pyrazolo[3,4-d]pyrimidin-4-amine]
> 8.00 | CCN1CC(c2c(Cl)c(Cl)cc(C(C)n3nc(C)c4c(N)ncnc43)c2OC)C1 (stereo not drawn) [298 (1st peak), 1-{1-[4,5-Dichloro-3-(1-ethylazetidin-3-yl)-2-methoxyphenyl]ethyl}-3-methyl-1H-pyrazolo[3,4-d]pyrimidin-4-amine]
> 8.00 | CCOc1c(C(C)n2nc(C)c3c(N)ncnc32)cc(Cl)c(C#N)c1C1CNC(=O)O1 (stereo not drawn) [323 (1st peak), 4-[1-(4-amino-3-methyl-1H-pyrazolo[3,4-d]pyrimidin-1-yl)ethyl]-6-chloro-3-ethoxy-2-(2-oxo-1,3-oxazolidin-5-yl)benzonitrile]
> 8.00 | COc1c(C(C)n2nc(C)c3c(N)ncnc32)cc(Cl)c(C)c1C1CN(C(C)=O)C1 (centres unmarked) [Example 2, 1-{1-[3-(1-Acetylazetidin-3-yl)-5-chloro-2-methoxy-4-methylphenyl]ethyl}-3-methyl-1H-pyrazolo[3,4-d]pyrimidin-4-amine trifluoroacetate]
> 8.00 | CCC(C)N1CC(c2c(C)c(Cl)cc(C(C)n3nc(C)c4c(N)ncnc43)c2OC)C1 (centres unmarked) [Example 8, 1-{1-[3-(1-sec-butylazetidin-3-yl)-5-chloro-2-methoxy-4-methylphenyl]ethyl}-3-methyl-1H-pyrazolo[3,4-d]pyrimidin-4-amine]
> 8.00 | CCOc1c(C(C)n2nc(C)c3c(N)ncnc32)cc(Cl)c(C)c1-c1ccc(C(=O)N(C)C)nc1 (centres unmarked) [Example 14, 5-{3-[1-(4-Amino-3-methyl-1H-pyrazolo[3,4-d]pyrimidin-1-yl)ethyl]-5-chloro-2-ethoxy-6-methylphenyl}-N,N-dimethylpyridine-2-carboxamide bis(trifluoroacetate)]
> 8.00 | COc1c(C(C)n2nc(C)c3c(N)ncnc32)cc(Cl)c(C)c1-c1ccc(C(=O)NCCO)nc1 (centres unmarked) [Example 23, 5-(3-(1-(4-amino-3-methyl-1H-pyrazolo[3,4-d]pyrimidin-1-yl)ethyl)-5-chloro-2-methoxy-6-methylphenyl)-N-(2-hydroxyethyl)picolinamide trifluoroacetate]
> 8.00 | COc1c(C(C)n2nc(C)c3c(N)ncnc32)cc(Cl)c(F)c1C1CN(C)C1 (centres unmarked) [Example 72]
> 8.00 | CCOc1c(C(C)n2nc(C)c3c(N)ncnc32)cc(Cl)c(C)c1C1CN(C[C@H](C)O)C1 (stereo partly drawn) [Example 96, (2S)-1-(3-{3-[1-(4-Amino-3-methyl-1H-pyrazolo[3,4-d]pyrimidin-1-yl)ethyl]-5-chloro-2-ethoxy-6-methylphenyl}azetidin-1-yl)propan-2-ol bis(trifluoroacetate)]
> 8.00 | CCOc1c(C(C)n2nc(C)c3c(N)ncnc32)cc(Cl)c(C)c1C1CN(C(=O)[C@H](C)O)C1 (stereo partly drawn) [Example 99, (2S)-1-(3-{3-[1-(4-Amino-3-methyl-1H-pyrazolo[3,4-d]pyrimidin-1-yl)ethyl]-5-chloro-2-ethoxy-6-methylphenyl}azetidin-1-yl)-1-oxopropan-2-ol trifluoroacetate]
> 8.00 | CNC(=O)[C@@H](C)N1CC(c2c(C)c(Cl)cc(C(C)n3nc(C)c4c(N)ncnc43)c2OC)C1 (stereo partly drawn) [Example 110, (2R)-2-(3-{3-[1-(4-Amino-3-methyl-1H-pyrazolo[3,4-d]pyrimidin-1-yl)ethyl]-5-chloro-2-methoxy-6-methylphenyl}azetidin-1-yl)-N-methylpropanamide trifluoroacetate]
> 8.00 | COc1c(C(C)n2nc(C)c3c(N)ncnc32)cc(Cl)c(C)c1C1CN(C(CO)C(F)(F)F)C1 (centres unmarked) [Example 113, 2-(3-{3-[1-(4-Amino-3-methyl-1H-pyrazolo[3,4-d]pyrimidin-1-yl)ethyl]-5-chloro-2-methoxy-6-methylphenyl}azetidin-1-yl)-3,3,3-trifluoropropan-1-ol]
> 8.00 | CCOc1c(C(C)n2nc(C)c3c(N)ncnc32)cc(Cl)c(F)c1C1CN(C[C@H](C)O)C1 (stereo partly drawn) [Example 149, (2S)-1-(3-{3-[1-(4-Amino-3-methyl-1H-pyrazolo[3,4-d]pyrimidin-1-yl)ethyl]-5-chloro-2-ethoxy-6-fluorophenyl}azetidin-1-yl)propan-2-ol]
> 8.00 | COc1c(C(C)n2nc(C)c3c(N)ncnc32)cc(Cl)c(C)c1C1CN([C@H](C)CO)C1 (stereo partly drawn) [Example 156, (2R)-2-(3-{3-[1-(4-Amino-3-methyl-1H-pyrazolo[3,4-d]pyrimidin-1-yl)ethyl]-5-chloro-2-methoxy-6-methylphenyl}azetidin-1-yl)propan-1-ol]
> 8.00 | COc1c(C(C)n2nc(C)c3c(N)ncnc32)cc(Cl)c(C)c1C1CN([C@H](C)C(=O)N(C)C)C1 (stereo partly drawn) [Example 159, (2R)-2-(3-{3-[1-(4-Amino-3-methyl-1H-pyrazolo[3,4-d]pyrimidin-1-yl)ethyl]-5-chloro-2-methoxy-6-methylphenyl}azetidin-1-yl)-N,N-dimethylpropanamide]
> 8.00 | CCOc1c(C(C)n2nc(C)c3c(N)ncnc32)cc(Cl)c(C)c1-c1ccc(C(=O)N(C)C)cn1 (centres unmarked) [Example 208, 6-{3-[1-(4-Amino-3-methyl-1H-pyrazolo[3,4-d]pyrimidin-1-yl)ethyl]-5-chloro-2-ethoxy-6-methylphenyl}-N,N-dimethylnicotinamide bis(trifluoroacetate)]
> 8.00 | CCOc1c(C(C)n2nc(C)c3c(N)ncnc32)cc(Cl)c(C#N)c1C1CN(C[C@H](C)O)C1 (stereo partly drawn) [Example 220, 4-[1-(4-Amino-3-methyl-1H-pyrazolo[3,4-d]pyrimidin-1-yl)ethyl]-6-chloro-3-ethoxy-2-{1-[(2S)-2-hydroxypropyl]azetidin-3-yl}benzonitrile]
> 8.00 | COc1c(C(C)n2nc(C)c3c(N)ncnc32)cc(Cl)c(C#N)c1C1CN(C[C@H](C)O)C1 (stereo partly drawn) [Example 269, 4-[1-(4-Amino-3-methyl-1H-pyrazolo[3,4-d]pyrimidin-1-yl)ethyl]-6-chloro-2-{1-[(2S)-2-hydroxypropyl]azetidin-3-yl}-3-methoxybenzo nitrile]
> 8.00 | COc1c(C(C)n2nc(C)c3c(N)ncnc32)cc(Cl)c(C#N)c1C1CN(C(C)CO)C1 (centres unmarked) [Example 272, 4-[1-(4-amino-3-methyl-1H-pyrazolo[3,4-d]pyrimidin-1-yl)ethyl]-6-chloro-2-[1-(2-hydroxy-1-methylethyl)azetidin-3-yl]-3-methoxybenzonitrile]

Compound | pIC50
CCOc1c(C(C)n2nc(C)c3c(N)ncnc32)cc(Cl)c(F)c1C1CNC(=O)C1 (single isomer, unassigned) [Example 346, 4-{3-[1-(4-amino-3-methyl-1H-pyrazolo[3,4-d]pyrimidin-1-yl)ethyl]-5-chloro-2-ethoxy-6-fluorophenyl}pyrrolidin-2-one] | > 8.00
CCC(=O)N1CC(c2c(C)c(Cl)cc(C(C)n3nc(C)c4c(N)ncnc43)c2OC)C1 (centres unmarked) [Example 3, 1-{1-[5-Chloro-2-methoxy-4-methyl-3-(1-propionylazetidin-3-yl)phenyl]ethyl}-3-methyl-1H-pyrazolo[3,4-d]pyrimidin-4-amine trifluoroacetate] | > 8.00
COc1c(C(C)n2nc(C)c3c(N)ncnc32)cc(Cl)c(C)c1-c1ccc(C(=O)N(C)C)nc1 (centres unmarked) [Example 11, 5-{3-[1-(4-Amino-3-methyl-1H-pyrazolo[3,4-d]pyrimidin-1-yl)ethyl]-5-chloro-2-methoxy-6-methylphenyl}-N,N-dimethylpyridine-2-carboxamide bis(trifluoroacetate)] | > 8.00
COc1c(C(C)n2nc(C)c3c(N)ncnc32)cc(Cl)c(C)c1-c1ccnc(C(=O)N(C)C)c1 (centres unmarked) [Example 200, 4-(3-(1-(4-Amino-3-methyl-1H-pyrazolo[3,4-d]pyrimidin-1-yl)ethyl)-5-chloro-2-methoxy-6-methylphenyl)-N,N-dimethylpicolinamide bis(2,2,2-trifluoroacetate)] | > 8.00
